pIC50: −log10 of the molar value.
Columns and labels:
[1] = target: mTOR (Homo sapiens, UniProt P42345); experiment: mTOR LanthaScreen (TR-FRET, phosphorylation of 4EBP1); type: biochemical; details: phosphorylation of GFP-4E-BP1, 10 μM ATP, 90 minutes
Protocol: The mTOR LanthaScreen is a TR-FRET assay measuring the phosphorylation of mTOR's substrate 4EBP1. 384 well compound plates were prepared containing 1 μl of compound per well starting at 5 mM and diluted 1:2 across the row, resulting in a 22 well serial dilution. 24 μl of assay buffer (Invitrogen, PV4794) with 2 mM DTT was added to the compound plate in rows 1-24 using the VELOCITY 11™ VPREP™ 384 ST resulting in a DMSO concentration of 4%. The compound plate was mixed and 2.5 μl of serially diluted compound or controls was added to the assay plate (Costar, 3658).
The assay was conducted on the PerkinElmer® FlexDrop PLUS. A 5 μl mix of 800 nM GFP-4E-BP1 (Invitrogen, PV4759) and 20 μM ATP (Amgen) was added to rows 1-24. 2.5 μl of 0.6 μg/ml of mTOR Enzyme (Amgen) was added to rows 1-23. 2.5 μl of assay buffer was added to row 24 for the low control. The final concentration of the compounds was 50 μM serially diluted to 23.84 pM in 1% DMSO. […] The final concentrations in the assay reagents were 400 nM GFP-4E-BP1, 10 μM of ATP and 0.15 μg/ml of mTOR enzyme. The compound, enzyme, and substrate were incubated for 90 minutes. At this point, 10 μl of stop solution was added (20 mM Tris, pH 7.5 (Invitrogen, 15567-027), 0.02% Sodium Azide (Teknova, S0208), 0.01% NP-40 (Roche, 11754599001), 20 mM EDTA (Invitrogen, 15575-038) and 4 nM of Tb-anti-p4E-BP1 (Invitrogen, PV4758)) for a final concentration of 2 nM of Tb-anti-p4E-BP1.
Sixty minutes later the plates were read on the PerkinElmer® EnVision™ 2103 Multilable Reader using the Excitation filter 340 nm and the Emission filters 520 nm and 495 nm.

[2] = test system: phosphorylation of Akt at Serine 473 in U87 MG cells; experiment: pAkt AlphaScreen (U87 cell); type: cell-based; details: Homo sapiens, U-87 MG, 2 h; pAkt at Serine 473, U87 MG cells, two hours with compound
Method in brief: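 U87 MG cells (5K per well, plated overnight) treated 2 h at 37 °C with compound, 25 μM to 11.9 pM final in 0.5% DMSO. Lysates assayed for Akt Ser473 phosphorylation with SureFire AlphaScreen, incubated overnight at room temperature; IC50 from percent of control.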

Row | Structure (SMILES) | pIC50 [1] | pIC50 [2]
1 | Cc1nc(N)cc(-c2c(Nc3ccn(C)n3)nc3ccc(-c4cccc(S(C)(=O)=O)c4)cn23)n1 [Cpd 65, 3-(6-amino-2-methyl-4-pyrimidinyl)-N-(1-methyl-1H-pyrazol-3-yl)-6-(3-(methylsulfonyl)phenyl)imidazo[1,2-a]pyridin-2-amine] | 6.47 | 6.42
2 | CC(=O)n1ccc(Nc2nc3cccnn3c2-c2cc(N)nc(C)n2)n1 [Cpd 67, N-(1-acetyl-1H-pyrazol-3-yl)-3-(6-amino-2-methyl-4-pyrimidinyl)imidazo[1,2-b]pyridazin-2-amine] | 8.00 | 8.00
3 | COCCOc1ccc2nc(Nc3cc[nH]n3)c(-c3cc(N)nc(C)n3)n2n1 [Cpd 69, 3-(6-amino-2-methyl-4-pyrimidinyl)-6-(2-methoxyethoxy)-N-1H-pyrazol-3-ylimidazo[1,2-b]pyridazin-2-amine] | 8.40 | 9.00
4 | CNc1cc(-c2c(Nc3cc[nH]n3)nc3ccc(N4CCOCC4)nn23)nc(C)n1 [Cpd 72, 3-(2-methyl-6-(methylamino)-4-pyrimidinyl)-6-(4-morpholinyl)-N-1H-pyrazol-3-ylimidazo[1,2-b]pyridazin-2-amine] | 7.40 | 8.52
5 | Cc1nc(N)cc(-c2c(Nc3cc[nH]n3)nc3ccc(OCCN4CCCC4)nn23)n1 [Cpd 73] | 7.30 | 7.15
6 | Cc1nc(NC(=O)N(C)C)cc(-c2c(Nc3cc[nH]n3)nc3cccnn23)n1 [Cpd 75, 1,1-dimethyl-3-(2-methyl-6-(2-(1H-pyrazol-3-ylamino)imidazo[1,2-b]pyridazin-3-yl)-4-pyrimidinyl)urea] | 5.85 | 6.10
7 | Cc1nc(NC(=O)N2CCN(C)CC2)cc(-c2c(Nc3cc[nH]n3)nc3cccnn23)n1 [Cpd 77, 4-methyl-N-(2-methyl-6-(2-(1H-pyrazol-3-ylamino)imidazo[1,2-b]pyridazin-3-yl)-4-pyrimidinyl)-1-piperazinecarboxamide] | 5.57 | 5.79
8 | Cc1nc(NCC#N)cc(-c2c(Nc3cc[nH]n3)nc3cccnn23)n1 [Cpd 90] | 7.52 | 7.70
9 | Cc1nc(NC(=O)CN(C)C)cc(-c2c(Nc3ccn(C)n3)nc3cccnn23)n1 [Cpd 92] | 6.11 | 6.74
10 | Cc1nc(N)nc(-c2c(Nc3cc[nH]n3)nc3ccc(C4=CCN(C(=O)OC(C)(C)C)CC4)cn23)n1 [Cpd 97, tert-butyl 4-(3-(4-amino-6-methyl-1,3,5-triazin-2-yl)-2-(1H-pyrazol-3-ylamino)imidazo[1,2-a]pyridin-6-yl)-3,6-dihydro-1(2H)-pyridinecarboxylate] | 7.80 | 7.52
11 | CNC(=O)c1ccc(-c2ccc3nc(Nc4cc[nH]n4)c(-c4nc(C)nc(N)n4)n3c2)cc1F [Cpd 99, 4-(3-(4-amino-6-methyl-1,3,5-triazin-2-yl)-2-(1H-pyrazol-3-ylamino)imidazo[1,2-a]pyridin-6-yl)-2-fluoro-N-methylbenzamide] | 8.40 | 8.00
12 | CC(=O)NCc1ccc(-c2ccc3nc(Nc4cc[nH]n4)c(-c4nc(C)nc(N)n4)n3c2)cc1 [Cpd 100, N-(4-(3-(4-amino-6-methyl-1,3,5-triazin-2-yl)-2-(1H-pyrazol-3-ylamino)imidazo[1,2-a]pyridin-6-yl)benzyl)acetamide] | 9.00 | 8.00
13 | Cc1nc(N)nc(-c2c(Nc3cc[nH]n3)nc3ccc(-c4ccoc4)cn23)n1 [Cpd 105, 3-(4-amino-6-methyl-1,3,5-triazin-2-yl)-6-(3-furanyl)-N-1H-pyrazol-3-ylimidazo[1,2-a]pyridin-2-amine] | 7.85 | 7.30
14 | Cc1nc(N)nc(-c2c(Nc3cc[nH]n3)nc3ccc(-c4ccc(F)cc4C)cn23)n1 [Cpd 107, 3-(4-amino-6-methyl-1,3,5-triazin-2-yl)-6-(4-fluoro-2-methylphenyl)-N-1H-pyrazol-3-ylimidazo[1,2-a]pyridin-2-amine] | 7.40 | 6.89
15 | CSc1cccc(-c2ccc3nc(Nc4cc[nH]n4)c(-c4nc(C)nc(N)n4)n3c2)c1 [Cpd 109, 3-(4-amino-6-methyl-1,3,5-triazin-2-yl)-6-(3-(methylsulfanyl)phenyl)-N-1H-pyrazol-3-ylimidazo[1,2-a]pyridin-2-amine] | 7.30 | 6.66
16 | CC(=O)Nc1cccc(-c2ccc3nc(Nc4cc[nH]n4)c(-c4nc(C)nc(N)n4)n3c2)c1 [Cpd 114, N-(3-(3-(4-amino-6-methyl-1,3,5-triazin-2-yl)-2-(1H-pyrazol-3-ylamino)imidazo[1,2-a]pyridin-6-yl)phenyl)acetamide] | 8.00 | 7.52
17 | Cc1nc(N)nc(-c2c(Nc3cc[nH]n3)nc3ccc(-c4cccc(NC(=O)C5CC5)c4)cn23)n1 [Cpd 115, N-(3-(3-(4-amino-6-methyl-1,3,5-triazin-2-yl)-2-(1H-pyrazol-3-ylamino)imidazo[1,2-a]pyridin-6-yl)phenyl)cyclopropanecarboxamide] | 8.52 | 7.40
18 | Cc1nc(NC(=O)C2CC2)cc(-c2c(Nc3cc[nH]n3)nc3cccnn23)n1 [Cpd 120] | 6.54 | 6.96
19 | COCC(=O)Nc1cc(-c2c(Nc3ccn(C)n3)nc3cccnn23)nc(C)n1 [Cpd 123, 2-methoxy-N-(2-methyl-6-(2-((1-methyl-1H-pyrazol-3-yl)amino)imidazo[1,2-b]pyridazin-3-yl)-4-pyrimidinyl)acetamide] | 6.85 | 6.82
20 | Cc1nc(NC(=O)CC#N)cc(-c2c(Nc3ccn(C)n3)nc3ccccn23)n1 [Cpd 126, 2-cyano-N-(2-methyl-6-(2-((1-methyl-1H-pyrazol-3-yl)amino)imidazo[1,2-a]pyridin-3-yl)-4-pyrimidinyl)acetamide] | 6.16 | 6.66
21 | Cc1nc(NC(=O)CC(F)(F)F)cc(-c2c(Nc3ccn(C)n3)nc3cccnn23)n1 [Cpd 134, 3,3,3-trifluoro-N-(2-methyl-6-(2-((1-methyl-1H-pyrazol-3-yl)amino)imidazo[1,2-b]pyridazin-3-yl)-4-pyrimidinyl)propanamide] | 6.09 | 6.68
22 | Cc1nc(Nc2ccc(N3CCOC(C)C3)nn2)cc(-c2c(Nc3cc[nH]n3)nc3cccnn23)n1 (stereo not shown) [Cpd 140, 3-(2-methyl-6-((6-(2-methyl-4-morpholinyl)-3-pyridazinyl)amino)-4-pyrimidinyl)-N-1H-pyrazol-3-ylimidazo[1,2-b]pyridazin-2-amine] | 6.96 | 7.05
23 | Cc1nc(N)cc(-c2c(Nc3cccc(N4CCN(C)CC4)c3)nc3cccnn23)n1 [Cpd 151, 3-(6-amino-2-methyl-4-pyrimidinyl)-N-(3-(4-methyl-1-piperazinyl)-phenyl)imidazo[1,2-b]pyridazin-2-amine] | 6.37 | 5.27
24 | Cc1nc(N)nc(-c2c(Nc3cc[nH]n3)nc3ccc(Nc4ccncc4)cn23)n1 [Cpd 166] | 7.60 | 6.35
25 | Cc1nc(N)nc(-c2c(Nc3cc[nH]n3)nc3ccc(-c4ccc5c(c4)CCNC5=O)cn23)n1 [Cpd 175, 6-(3-(4-amino-6-methyl-1,3,5-triazin-2-yl)-2-(1H-pyrazol-3-ylamino)imidazo[1,2-a]pyridin-6-yl)-3,4-dihydro-1(2H)-isoquinolinone] | 8.70 | 7.52
26 | Cc1nc(N)nc(-c2c(Nc3cc[nH]n3)nc3ccc(-c4ccc(C(=O)O)cc4C)cn23)n1 [Cpd 177, 4-(3-(4-amino-6-methyl-1,3,5-triazin-2-yl)-2-(1H-pyrazol-3-ylamino)imidazo[1,2-a]pyridin-6-yl)-3-methylbenzoic acid] | 9.00 | 6.77
27 | Cc1nc(N)nc(-c2c(Nc3cc[nH]n3)nc3cc(C4=CCN(C(=O)OC(C)(C)C)CC4)ccn23)n1 [Cpd 183, tert-butyl 4-(3-(4-amino-6-methyl-1,3,5-triazin-2-yl)-2-(1H-pyrazol-3-ylamino)imidazo[1,2-a]pyridin-7-yl)-3,6-dihydro-1(2H)-pyridinecarboxylate] | 6.34 | 6.12
28 | COCCOc1ccn2c(-c3nc(C)nc(N)n3)c(Nc3cc[nH]n3)nc2c1 [Cpd 185, 3-(4-amino-6-methyl-1,3,5-triazin-2-yl)-7-(2-methoxyethoxy)-N-1H-pyrazol-3-ylimidazo[1,2-a]pyridin-2-amine] | 7.40 | 7.30
29 | Cc1nc(N)nc(-c2c(Nc3cc[nH]n3)nc3cc(OCCN4CCCC4)ccn23)n1 [Cpd 188] | 6.44 | 6.49

Reference: US20120190666A1, “Heteroaryl Compounds as PIKK Inhibitors” (Amgen Inc., priority 2009, published 2012)
